The target of the test is T1, VLA4 (Homo sapiens, UniProt P05556+P13612).
T1 construct: endogenous in cells; host or cells: Ramos cells
The experiment in a line: Inhibition of VLA4-dependent adhesion to BSA-CS1. Format: cell-based.

[1] abbreviates: binding of BCECF-labelled Ramos cells to BSA-CS1 coated wells, 2 mM MnCl2, read-out: IC50.

Read-outs that look alike come from different tables or passages of the source. Numbered stars: 1 amine (or outer) side, 2 acyl side, 3 side chain; on linkers, the order of the positions; unused ones are H or OH. Square brackets hold non-standard residues; d marks the D form. Peptide text beside a SMILES is read from it. * marks the point of attachment. ξ: configuration not given here. X2 = Cc1ccccc1NC(=O)Nc1ccc(CN*)cc1; X1 = O=C(Cc1ccc(N[*:1])cc1)[*:2]; NH(2-Me-phenyl) = Cc1ccccc1N*; ξTic = O=C(O)C1Cc2ccccc2CN1; PhAc = O=C(Cc1ccccc1)*; CO = O=C([*:1])[*:2]; Bz = O=C(c1ccccc1)*; X3 = Cc1cccc(N*)n1

T1 sequence (P13612 34-1032): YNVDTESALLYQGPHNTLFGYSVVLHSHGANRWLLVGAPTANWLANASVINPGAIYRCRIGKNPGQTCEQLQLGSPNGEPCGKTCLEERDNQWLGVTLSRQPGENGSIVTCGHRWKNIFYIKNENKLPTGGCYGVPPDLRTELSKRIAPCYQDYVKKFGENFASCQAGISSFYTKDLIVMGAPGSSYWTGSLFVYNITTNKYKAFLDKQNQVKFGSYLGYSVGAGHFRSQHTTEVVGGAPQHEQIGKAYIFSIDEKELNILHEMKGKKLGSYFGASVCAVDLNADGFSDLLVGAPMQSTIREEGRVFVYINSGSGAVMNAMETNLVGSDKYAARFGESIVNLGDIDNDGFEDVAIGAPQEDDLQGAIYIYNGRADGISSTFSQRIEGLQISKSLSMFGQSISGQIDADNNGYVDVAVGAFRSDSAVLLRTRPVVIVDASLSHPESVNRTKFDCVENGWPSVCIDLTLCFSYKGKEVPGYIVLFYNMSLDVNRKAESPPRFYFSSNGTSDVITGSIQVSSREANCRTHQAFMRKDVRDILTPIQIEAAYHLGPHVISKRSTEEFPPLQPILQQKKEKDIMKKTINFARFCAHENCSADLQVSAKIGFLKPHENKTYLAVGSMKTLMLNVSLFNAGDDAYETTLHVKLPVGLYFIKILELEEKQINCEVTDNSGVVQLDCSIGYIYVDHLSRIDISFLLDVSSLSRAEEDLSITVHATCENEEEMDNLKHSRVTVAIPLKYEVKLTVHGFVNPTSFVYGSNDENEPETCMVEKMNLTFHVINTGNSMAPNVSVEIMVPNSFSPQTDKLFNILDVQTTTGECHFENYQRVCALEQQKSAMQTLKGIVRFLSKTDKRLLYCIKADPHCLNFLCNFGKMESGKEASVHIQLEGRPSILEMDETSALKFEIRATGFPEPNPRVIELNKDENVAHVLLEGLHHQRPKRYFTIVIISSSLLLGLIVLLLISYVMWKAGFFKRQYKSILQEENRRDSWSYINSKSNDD
T1 sequence (P05556 21-798): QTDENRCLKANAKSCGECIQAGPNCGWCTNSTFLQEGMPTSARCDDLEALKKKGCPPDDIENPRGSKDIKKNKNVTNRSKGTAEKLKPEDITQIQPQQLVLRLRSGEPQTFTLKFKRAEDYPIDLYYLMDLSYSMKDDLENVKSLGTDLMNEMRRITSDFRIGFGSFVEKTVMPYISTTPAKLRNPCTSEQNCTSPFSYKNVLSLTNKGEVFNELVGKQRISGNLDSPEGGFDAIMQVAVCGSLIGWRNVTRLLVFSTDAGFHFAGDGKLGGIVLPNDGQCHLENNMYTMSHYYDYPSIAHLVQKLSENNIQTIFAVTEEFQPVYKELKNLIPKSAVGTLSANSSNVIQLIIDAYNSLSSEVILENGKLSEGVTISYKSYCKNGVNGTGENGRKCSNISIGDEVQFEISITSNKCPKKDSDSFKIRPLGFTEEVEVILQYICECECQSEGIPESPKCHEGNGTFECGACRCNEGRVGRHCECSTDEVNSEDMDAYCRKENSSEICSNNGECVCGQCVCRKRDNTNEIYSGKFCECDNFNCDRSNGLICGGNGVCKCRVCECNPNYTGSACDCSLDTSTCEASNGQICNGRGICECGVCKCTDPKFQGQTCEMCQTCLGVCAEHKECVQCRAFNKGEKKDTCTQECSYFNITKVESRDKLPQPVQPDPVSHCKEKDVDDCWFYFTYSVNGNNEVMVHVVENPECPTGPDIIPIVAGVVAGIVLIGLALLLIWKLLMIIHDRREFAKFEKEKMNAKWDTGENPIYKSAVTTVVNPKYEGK

As usually defined, the IC50 is the concentration needed to halve the response being measured. On to `CSCC[C@H](NC(=O)[C@H](CC(=O)O)NC(=O)[C@@H](CC(C)C)NC(=O)Cc1ccc(NC(=O)Nc2ccccc2C)cc1)C(N)=O` [Compound 292], for which the IC50 under setting [1] is less than 50 nM. Regarding `CC(C)C[C@H](NC(=O)c1ccc2c(c1)CCO2)C(=O)N[C@@H](CC(=O)O)C(=O)N[C@H](C(=O)O)C(C)C` [Compound 387], the 50% inhibitory concentration (IC50) under setting [1] was greater than 10000 nM. Still for that read-out and setting: then `Cc1ccccc1NC(=O)Nc1ccc(CC(=O)N[C@H](C(=O)N[C@@H](CC(=O)O)C(=O)N[C@@H](CCC(=O)O)C(N)=O)[C@@H](C)O)cc1` [Compound 256], with less than 50 nM; and `Cc1ccccc1NC(=O)Nc1ccc(CC(=O)N[C@H](C(=O)N[C@@H](CCC(=O)O)C(=O)N[C@@H](CC(=O)O)C(N)=O)[C@@H](C)O)cc1` [Compound 314], with less than 50 nM; and `Cc1ccccc1NC(=O)Nc1ccc(CC(=O)N[C@@H](CCC(N)=O)C(=O)N[C@@H](CC(=O)O)C(=O)N[C@H](C(N)=O)C(C)C)cc1` [Compound 299], with less than 50 nM. Still for that read-out and setting: as for `Cc1ccccc1NC(=O)Nc1ccc(CC(=O)N2CCC[C@H]2C(=O)N[C@@H](CC(=O)O)C(=O)N[C@@H](CCC(=O)O)C(N)=O)cc1` [Compound 245], the figure is less than 50 nM; as for `CC(C)C[C@H](NC(=O)c1csc(-c2cccnc2)n1)C(=O)N[C@@H](CC(=O)O)C(=O)N[C@H](C(=O)O)C(C)C` [Compound 375], 50 to 10000 nM. On the same count and under the same terms, then `Cc1ccccc1NC(=O)Nc1ccc(CC(=O)N[C@H](CC(C)C)C(=O)N[C@@H](CC(=O)O)C(=O)N[C@H](CC(C)C)C(N)=O)cc1` [Compound 289], with less than 50 nM; and `Cc1ccccc1NC(=O)Nc1ccc(CC(=O)NC(CC(C)C)C(=O)NC(CC(=O)O)C(=O)NC(C(=O)N2CCOCC2)C(C)C)cc1` (stereo not shown) [Compound 329], with less than 50 nM. With `Cc1ccccc1NC(=O)Nc1ccc(CC(=O)N[C@@H](CCC(=O)O)C(=O)N[C@@H](CC(=O)O)C(=O)N[C@@H](Cc2c[nH]c3ccccc23)C(N)=O)cc1` [Compound 272], the IC50 under setting [1] was less than 50 nM. Same read-out and setting: as for `Cc1ccccc1NC(=O)Nc1ccc(CC(=O)N[C@H](CC(C)C)C(=O)N[C@@H](CC(=O)O)C(=O)N[C@H](C(N)=O)C(C)C)cc1` [Compound 288], the figure is less than 50 nM.

On to `CCC(C)C(NC(=O)C(CC(=O)O)NC(=O)C(NC(=O)C1CCCN1)C(C)C)C(=O)NCc1ccc(NC(=O)Nc2ccccc2C)cc1` (stereo not shown) [Compound 343] (H-PVDI-X2; configuration not given here), for which the concentration for half-maximal inhibition (IC50) under setting [1] was greater than 10000 nM. As for `CCC(C)C(NC(=O)C(CC(=O)O)NC(=O)C(CC(C)C)NC(=O)Cc1ccccc1)C(N)=O` (stereo not drawn) [Compound 53] (PhAc-Leu-Asp-Ile-NH2; configuration not given here), the IC50 under setting [1] is greater than 10000 nM. Same read-out and setting: then `CSCC[C@H](NC(=O)Cc1ccc(NC(=O)Nc2ccccc2C)cc1)C(=O)N[C@@H](CC(=O)O)C(=O)N[C@H](CC(N)=O)C(N)=O` [Compound 226], with less than 50 nM; and `CC(C)C[C@H](NC(=O)c1cc2ccccc2cn1)C(=O)NC(CC(=O)NO)C(=O)N[C@H](C(=O)O)C(C)C` (stereo partly shown) [Compound 6], with greater than 10000 nM; and `Cc1ccccc1NC(=O)Nc1ccc(CC(=O)N[C@@H](CS)C(=O)N[C@@H](CC(=O)O)C(=O)N[C@H](C(N)=O)C(C)C)cc1` [Compound 274], with less than 50 nM.

Regarding `COC(=O)[C@@H](NC(=O)[C@H](CC(=O)O)N1CCC(NC(=O)OCc2ccccc2)C1=O)C(C)C` (stereo partly shown) [Compound 334], the IC50 under setting [1] was greater than 10000 nM. Still for that read-out and setting: as for `CC(C)C[C@H](NC(=O)N1c2ccccc2CCc2ccccc21)C(=O)N[C@@H](CC(=O)O)C(=O)N[C@H](C(=O)O)C(C)C` [Compound 408], the figure is greater than 10000 nM.

With `Cc1ccccc1NC(=O)Nc1ccc(CC(=O)N[C@H](C(=O)N[C@@H](CC(=O)O)C(=O)N[C@@H](Cc2c[nH]c3ccccc23)C(N)=O)[C@@H](C)O)cc1` [Compound 261], under setting [1], the IC50 is less than 50 nM. Same read-out and setting: as for `Cc1ccccc1NC(=O)Nc1ccc(CC(=O)N[C@@H](CCC(=O)O)C(=O)N[C@@H](CC(=O)O)C(=O)N[C@H](C(N)=O)C(C)C)cc1` [Compound 265], the figure is less than 50 nM; as for `CC(C)C[C@H](NC(=O)[C@H](Cc1ccccc1)NC(=O)c1ccccc1)C(=O)N[C@@H](CC(=O)O)C(=O)N[C@H](C(=O)O)C(C)C` [Compound 153] (Bz-FLDV-OH), greater than 10000 nM; as for `Cc1cccc(NC(=O)Nc2ccc(CC(=O)N[C@@H](CC(C)C)C(=O)N[C@@H](CC(=O)O)C(=O)N[C@H](C(=O)N3CCC[C@H]3C(=O)O)C(C)C)cc2)n1` [Compound 346] ({X3-CO}-[X1]LDVP-OH), less than 50 nM. On the same count and under the same terms, as for `Cc1ccccc1NC(=O)Nc1ccc(CC(=O)N[C@@H](CCC(N)=O)C(=O)N[C@@H](CC(=O)O)C(=O)N[C@@H](CC(=O)O)C(N)=O)cc1` [Compound 297], the figure is less than 50 nM. Still for that read-out and setting: as for `CC(C)C[C@H](NC(=O)CCCCc1ccccc1)C(=O)N[C@@H](CC(=O)O)C(=O)N[C@H](C(=O)O)C(C)C` [Compound 98], the figure is greater than 10000 nM. With `CCCCCCNC(=O)C(NC(=O)C(CC(=O)O)NC(=O)C(CC(C)C)NC(=O)CCc1ccc(O)cc1)C(C)C` (stereo not shown) [Compound 119], the IC50 under setting [1] was greater than 10000 nM.

As to `Cc1ccccc1NC(=O)Nc1ccc(CC(=O)NC(CC(C)C)C(=O)NC(CC(=O)O)C(=O)NC(CO)C(N)=O)cc1` (stereo not shown) [Compound 296], the 50% inhibitory concentration (IC50) under setting [1] is less than 50 nM. On the same count and under the same terms, then `CC(C)C[C@H](NC(=O)C1C2CC3CC(C2)CC1C3)C(=O)N[C@@H](CC(=O)O)C(=O)N[C@H](C(=O)O)C(C)C` (stereo partly shown) [Compound 398], with greater than 10000 nM; and `Cc1ccccc1NC(=O)Nc1ccc(CC(=O)N[C@H](CC(C)C)C(=O)N[C@@H](CC(=O)O)C(=O)N[C@@H](Cc2c[nH]c3ccccc23)C(N)=O)cc1` [Compound 295], with less than 50 nM. Still for that read-out and setting: then `CC(C)C[C@H](NC(=O)Cc1cccs1)C(=O)N[C@@H](CC(=O)O)C(=O)N[C@H](C(=O)O)C(C)C` [Compound 404], with greater than 10000 nM; and `CSCC[C@H](NC(=O)Cc1ccc(NC(=O)Nc2ccccc2C)cc1)C(=O)N[C@@H](CC(=O)O)C(=O)N[C@H](CCC(=O)O)C(N)=O` [Compound 227], with less than 50 nM. The same measure, in the same setting: as for `CNC(=O)[C@H](CCC(=O)O)NC(=O)[C@@H]1CCCN1C(=O)Cc1ccc(NC(=O)Nc2ccccc2C)cc1` [Compound 413], the figure is 50 to 10000 nM; as for `CC(C)[C@H](NC(=O)[C@H](CC(=O)O)NC(=O)C(C)(C)NC(=O)c1cc2ccccc2cn1)C(=O)O` [Compound 82], greater than 10000 nM; as for `Cc1ccccc1NC(=O)Nc1ccc(CC(=O)N2CCC2C(=O)N[C@@H](CC(=O)O)C(=O)N[C@H](CC(C)C)C(=O)O)cc1` (stereo partly shown) [Compound 412], 50 to 10000 nM.

As to `CC(C)C[C@H](NC(=O)[C@H](CC(=O)O)NC(=O)[C@H](CC(C)C)NC(=O)C1Cc2ccccc2CN1)C(=O)O` (stereo partly shown) [Compound 90] (H-[ξTic]LDL-OH), the IC50 under setting [1] was greater than 10000 nM. Still for that read-out and setting: then `Cc1ccccc1NC(=O)Nc1ccc(CC(=O)N[C@H](C(=O)N[C@@H](CC(=O)O)C(=O)N[C@H](CC(C)C)C(N)=O)[C@@H](C)O)cc1` [Compound 255], with less than 50 nM; and `CC(C)C[C@H](NC(=O)COc1ccc2ccccc2c1)C(=O)N[C@@H](CC(=O)O)C(=O)N[C@H](C(=O)O)C(C)C` [Compound 395], with greater than 10000 nM. `Cc1ccccc1NC(=O)Nc1ccc(CC(=O)N[C@@H](CC(C)C)C(=O)N[C@@H](CC(=O)O)C(=O)N[C@H](C(=O)N2CCC[C@H]2C(=O)N[C@@H](CO)C(=O)N[C@H](C(=O)O)[C@@H](C)O)C(C)C)cc1` [Compound 338] ({NH(2-Me-phenyl)-CO}-[X1]LDVPST-OH) gave a concentration for half-maximal inhibition (IC50) of less than 50 nM.

For the origin of these results see patent publication US6875743B1, “Cell adhesion inhibitors” (Biogen, Inc., priority 1996, dated 2005).
